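Protocol summary: plate cells (96-well), add compound at 5 concentrations, incubate 48 h, interpolate endpoints linearly. GI50 marks 50% less growth. TGI denotes the concentration required for complete inhibition of growth.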
Experiments:
Experiment in all cases: inhibition of tumour cell growth, NCI panel, 48 h
[1] = system: SW-620 colon
[2] = system: K-562 leukemia
[3] = system: SR leukemia
[4] = system: OVCAR-5 ovarian
[5] = system: KM12 colon
[6] = system: MDA-MB-435
[7] = system: SK-MEL-2 melanoma
[8] = system: UACC-62 melanoma
[9] = system: SK-MEL-28 melanoma
[10] = system: BT-549 breast
[11] = system: MDA-MB-231 breast
[12] = system: COLO 205 colon
[13] = system: SN12C renal
[14] = system: PC-3 prostate
[15] = system: SNB-19 CNS
[16] = system: ACHN renal
[17] = system: SNB-75 CNS
[18] = system: SK-MEL-5 melanoma
[19] = system: LOX IMVI melanoma
[20] = system: M14 melanoma
[21] = system: SK-OV-3 ovarian
[22] = system: HOP-62 NSCLC
[23] = system: NCI/ADR-RES ovarian
[24] = system: IGROV1 ovarian
[25] = system: HT29 colon
[26] = system: HL-60(TB) leukemia
[27] = system: HCC-2998 colon
[28] = system: NCI-H460 lung
[29] = system: A498 renal
[30] = system: U251 CNS
[31] = system: MALME-3M melanoma
[32] = system: UACC-257 melanoma
[33] = system: OVCAR-4 ovarian
[34] = system: OVCAR-8 ovarian
[35] = system: UO-31 renal
[36] = system: RPMI-8226 leukemia
[37] = system: EKVX NSCLC
[38] = system: SF-539 CNS
[39] = system: NCI-H226 lung
[40] = system: HOP-92 NSCLC
[41] = system: A549 NSCLC
[42] = system: SF-268 CNS
[43] = system: CCRF-CEM leukemia
[44] = system: HCT-116 colon
[45] = system: HCT-15 colon
[46] = system: 786-0 renal
[47] = system: HS 578T breast
[48] = system: OVCAR-3 ovarian
[49] = system: CAKI-1 renal
[50] = system: MOLT-4 leukemia
[51] = system: T-47D breast
[52] = system: NCI-H522 lung
[53] = system: NCI-H23 lung
[54] = system: TK-10 renal
[55] = system: SF-295 CNS
[56] = system: MCF7 breast
[57] = system: DU-145 prostate

Q: What does the source list for `N#Cc1cnc(=O)n(C2CC(O)C(CO)O2)c1` (centres undefined)?
A: GI50 [1]: > 100 µM; TGI [1]: > 100 µM; GI50 [2]: 93.1 µM; TGI [2]: > 100 µM; GI50 [3]: > 100 µM; TGI [3]: > 100 µM; GI50 [4]: > 100 µM; TGI [4]: > 100 µM; GI50 [5]: > 100 µM; TGI [5]: > 100 µM; GI50 [6]: > 100 µM; TGI [6]: > 100 µM; GI50 [7]: > 100 µM; TGI [7]: > 100 µM; GI50 [8]: > 100 µM; TGI [8]: > 100 µM; GI50 [9]: > 100 µM; TGI [9]: > 100 µM; GI50 [10]: > 100 µM; TGI [10]: > 100 µM; GI50 [11]: > 100 µM; TGI [11]: > 100 µM; GI50 [12]: > 100 µM; TGI [12]: > 100 µM; GI50 [13]: > 100 µM; TGI [13]: > 100 µM; GI50 [14]: > 100 µM; TGI [14]: > 100 µM; GI50 [15]: > 100 µM; TGI [15]: > 100 µM; GI50 [16]: > 100 µM; TGI [16]: > 100 µM; GI50 [17]: 44.1 µM; TGI [17]: > 100 µM; GI50 [18]: > 100 µM; TGI [18]: > 100 µM; GI50 [19]: > 100 µM; TGI [19]: > 100 µM; GI50 [20]: > 100 µM; TGI [20]: > 100 µM; GI50 [21]: > 100 µM; TGI [21]: > 100 µM; GI50 [22]: > 100 µM; TGI [22]: > 100 µM; GI50 [23]: > 100 µM; TGI [23]: > 100 µM; GI50 [24]: > 100 µM; TGI [24]: > 100 µM; GI50 [25]: > 100 µM; TGI [25]: > 100 µM; GI50 [26]: > 100 µM; TGI [26]: > 100 µM; GI50 [27]: > 100 µM; TGI [27]: > 100 µM; GI50 [28]: > 100 µM; TGI [28]: > 100 µM; GI50 [29]: 17.5 µM; TGI [29]: 82 µM; GI50 [30]: > 100 µM; TGI [30]: > 100 µM; GI50 [31]: > 100 µM; TGI [31]: > 100 µM; GI50 [32]: > 100 µM; TGI [32]: > 100 µM; GI50 [33]: > 100 µM; TGI [33]: > 100 µM; GI50 [34]: > 100 µM; TGI [34]: > 100 µM; GI50 [35]: 51.6 µM; TGI [35]: > 100 µM; GI50 [36]: > 100 µM; TGI [36]: > 100 µM; GI50 [37]: > 100 µM; TGI [37]: > 100 µM; GI50 [38]: > 100 µM; TGI [38]: > 100 µM; GI50 [39]: > 100 µM; TGI [39]: > 100 µM; GI50 [40]: > 100 µM; TGI [40]: > 100 µM; GI50 [41]: > 100 µM; TGI [41]: > 100 µM; GI50 [42]: > 100 µM; TGI [42]: > 100 µM; GI50 [43]: > 100 µM; TGI [43]: > 100 µM; GI50 [44]: > 100 µM; TGI [44]: > 100 µM; GI50 [45]: > 100 µM; TGI [45]: > 100 µM; GI50 [46]: > 100 µM; TGI [46]: > 100 µM; GI50 [47]: > 100 µM; TGI [47]: > 100 µM; GI50 [48]: > 100 µM; TGI [48]: > 100 µM; GI50 [49]: > 100 µM; TGI [49]: > 100 µM; GI50 [50]: > 100 µM; TGI [50]: > 100 µM; GI50 [51]: > 100 µM; TGI [51]: > 100 µM; GI50 [52]: > 100 µM; TGI [52]: > 100 µM; GI50 [53]: > 100 µM; TGI [53]: > 100 µM; GI50 [54]: > 100 µM; TGI [54]: > 100 µM; GI50 [55]: > 100 µM; TGI [55]: > 100 µM; GI50 [56]: > 100 µM; TGI [56]: > 100 µM; GI50 [57]: > 100 µM; TGI [57]: > 100 µM
